In patent publication US11246907B2, “Immunosuppressive agents and their use in therapy” (Norwegian University of Science and Technology, priority 2013, dated 2022):

Tests used:
monocytes = assay: Annexin staining / flow cytometry of monocytes (apoptosis); assay type: cell-based, human; conditions: 4 hours, monocytes
Experimental: Annexin staining was used to determine cell viability and cells were counted using flow cytometry.
Peripheral blood […] were isolated from A+ buffy coats (Blood Bank, St. Olav's University Hospital) by density gradient centrifugation (Lymphoprep; Axis-Shield PoC, Oslo, Norway). The adherent cell fraction after 90 minute incubation, termed monocytes, were washed twice with HANKS and maintained in RPMI 1640 supplemented with 2 mM glutamine, […] gentamicin and 25% heat-inactivated HS over-night. Cells were cultured at 37° C. in a humidified atmosphere of 5% CO2 over-night. […] An R11 peptide and no peptide treatment were used as controls. After 4 hours, the cells were washed once in PBS, and re-suspended in buffer as recommended by the manufacturer of the Annexin V-Pacific Blue kit (Invitrogen). Cells were identified monocytes according to size (FSC) and granularity (SSC).

[1] = tested on: peripheral blood monocytes; assay: Multiplex (27-plex) cytokine secretion of TLR-ligand stimulated peripheral blood monocytes; assay type: cell-based, human; conditions: LPS or polyIC, 4 h; ATX-101 4 μM, SB203580 10 μM, LY294002 5 and 10 μM, SC66 1 μg/ml
Experimental: Measured cytokine levels were normalized to cytokine levels from monocytes stimulated with TLR ligand alone. A two fold or higher increase in cytokine level after TLR stimulation was defined as cytokine induction. […] Isolated monocytes were stimulated with 10 ng/ml LPS and 40 μg/ml polyIC alone and in combination with 4 μM ATX-101 for 4 h. […] DRAQS was used for nuclear staining. Bar, 5 μm.
Data is from one representative donor out of three; and (B-E) show multiplex analysis of cytokine levels produced by peripheral blood monocytes stimulated with 10 ng/ml LPS (B and D, same donor) and 40 μg/ml polyIC (C and E, same donor) after 4 h. (B and C) Stimulated-monocytes were treated with 4 μM ATX-101, 10 μM SB203580 (p38 MAPK inhibitor), and combination of ATX-101 and SB203580. (D and E) Stimulated-monocytes were treated with 4 μM ATX-101, 5 and 10 μM LY294002 (PI3K class I inhibitor), and combination of ATX-101 and LY294002. Measured cytokine levels were normalized to cytokine levels from monocytes stimulated with TLR ligand alone. A two fold or higher increase in cytokine level after TLR stimulation was defined as cytokine induction. # Value is too low to be visible in the column diagram; ? cytokine measurement was out of range. Data is from representative experiments out of two.
(§1) Measured cytokine levels were normalized to cytokine levels from monocytes stimulated with TLR ligand alone. A two fold or higher increase in cytokine level after TLR stimulation was defined as cytokine induction. ? Cytokine measurement was out of range. Data is from one experiment out of two.
Measured cytokine levels were normalized to cytokine levels from monocytes stimulated with TLR ligand alone. Data is from one donor. We obtained similar results for IL-6 secretion in two other donors.
as §1, with “# Value is too low to be visible in the column diagram; 0” for “?”
Peripheral blood mononuclear cells were isolated from A+ buffy coats (Blood Bank, St. Olav's University Hospital, Trondheim, Norway) by density gradient centrifugation (Lymphoprep; Axis-Shield PoC, Oslo, Norway). Mononucleated cells were seeded at 4 million cells/ml in serum-free RPMI 1640 supplemented with glutamine and gentamicin. After 60-90 min the adherent cell population was washed before cultured in medium with 10% heat-inactivated human serum (Blood Bank, St. Olav's University Hospital). ATX-101 (4 μM [Innovagen, Lund, Sweden]), ATX-A (4 μM, [Innovagen]) (ATX-A is represented in SEQ ID NO: 1206 and contains the motif RALVK (SEQ ID NO: 1207), which is not capable of interacting with PCNA), p38 inhibitor (SB203580, 10 μM, [Sigma-Aldrich]), PI3K inhibitor (LY294002, 5 and 10 μM, [Sigma-Aldrich]), and Akt inhibitor (Akt inhibitor XVIII SC66, 1 μg/ml, [Sigma-Aldrich]) were added in serum-free medium and incubated for 5 min before LPS (10 ng/ml, [Sigma-Aldrich]), polylC (40 μg/ml, [GE Healthcare, Little Chalfont, UK]), PAM3Cys (10 ng/ml, [Invivogen, San Diego, Calif., USA]) or R848 (10 μg/ml, [Invivogen]) were added in serum-containing medium. The cells were incubated for 4 h before the supernatants were harvested and frozen prior to further cytokine analysis by the 27-plex assay (Bio-Plex ProTM Human cytokine 27-plex assay).

Structure (SMILES)	Percentage of annexin positive cells (monocytes; 5μM peptide treatment) [%]	Percentage of annexin positive cells (monocytes; 10 μM peptide treatment) [%]	cytokine secretion from stimulated monocytes, single agent [1]
CC[C@H](C)[C@H](NC(=O)[C@H](CCCCN)NC(=O)[C@H](CCCNC(=N)N)NC(=O)[C@H](CCCCN)NC(=O)[C@H](CCCCN)NC(=O)[C@H](CCCCN)NC(=O)[C@H](Cc1c[nH]c2ccccc12)NC(=O)[C@@H]1CCCN1C(=O)[C@@H](NC(=O)[C@H](CC(C)C)NC(=O)[C@H](Cc1c[nH]c2ccccc12)NC(=O)[C@H](CCCNC(=N)N)NC(=O)[C@H](CC(=O)O)NC(=O)[C@@H](N)CCSC)C(C)C)C(=O)N[C@@H](CCCNC(=N)N)C(=O)N[C@@H](CCCNC(=N)N)C(=O)N[C@@H](CCCNC(=N)N)C(=O)N[C@@H](CCCNC(=N)N)C(=O)N[C@@H](CCCNC(=N)N)C(=O)N[C@@H](CCCNC(=N)N)C(=O)N[C@@H](CCCNC(=N)N)C(=O)N[C@@H](CCCNC(=N)N)C(=O)N[C@@H](CCCNC(=N)N)C(=O)N[C@@H](CCCNC(=N)N)C(=O)N[C@@H](CCCNC(=N)N)C(=O)O [ATX-P]	65	81	–
N=C(N)NCCC[C@H](NC(=O)[C@H](CCCNC(=N)N)NC(=O)[C@H](CCCNC(=N)N)NC(=O)[C@H](CCCNC(=N)N)NC(=O)[C@H](CCCNC(=N)N)NC(=O)[C@H](CCCNC(=N)N)NC(=O)[C@H](CCCNC(=N)N)NC(=O)[C@H](CCCNC(=N)N)NC(=O)[C@H](CCCNC(=N)N)NC(=O)[C@H](CCCNC(=N)N)NC(=O)[C@@H](N)CCCNC(=N)N)C(=O)O [R11, reference compound]	55	56	–
C[S+]([O-])c1ccc(-c2nc(-c3ccncc3)c(-c3ccc(F)cc3)[nH]2)cc1 (stereo not drawn) [SB203580, reference compound]	–	–	reduced cytokine secretion
O=C1/C(=C/c2ccncc2)CCC/C1=C\c1ccncc1 [SC66, reference compound]	–	–	reduces cytokine secretion of monocytes to or below the basal levels
